{"source": "paper PMC11842588", "about": "“A first-in-class selective inhibitor of ERK1/2 and ERK5 overcomes drug resistance with a single-molecule strategy” (Signal Transduction and Targeted Therapy, 2025)", "key": {"[1]": {"system": "BT549 cells", "test": "MTT cell viability assay", "type": "cell-based", "conditions": "Homo sapiens, BT-549, 72 h", "method": "(§1) MDA-MB-468 and MDA-MB-436 cells were cultured in Leibovitz’s L-15 medium supplemented with 10% fetal bovine serum. […] All of the cells were cultured at 37 °C in a humidified atmosphere containing 5% CO2.\n(§2) Cancer cells were seeded in a density in 96-well plates (2 × 10^3 cells per well). After incubation for 24 h, cancer cells were treated with compounds (0–20 μM) for 72 h."}, "[2]": {"system": "MDA-MB-436 cells", "test": "MTT cell viability assay", "type": "cell-based", "conditions": "Homo sapiens, 72 h", "method": "as §1, §2"}, "[3]": {"system": "MDA-MB-231 cells with knockdown of ERK1/2/5", "test": "MTT assay in ERK1/2/5 siRNA knockdown cells", "type": "cell-based", "conditions": "Homo sapiens, siRNA co-transfection", "method": "(§3) The transient transfection processes were performed according to Lipofectamine 3000 transfection procedure details. The transfected cells were used for subsequent experiments after 48 h or 72 h.\nas §2"}, "[4]": {"system": "MDA-MB-468 cells with knockdown of ERK1/2/5", "test": "MTT assay in ERK1/2/5 siRNA knockdown cells", "type": "cell-based", "conditions": "Homo sapiens, siRNA co-transfection", "method": "as §3, §2"}, "[5]": {"test": "Liver microsome metabolic stability", "type": "in vitro ADME", "method": "An appropriate amount of SD rat and human liver microsomal solution was incubated at 37 °C with a specified concentration of candidate compounds for 5 min, and then NADPH reaction system was added to initiate metabolic reaction. The reaction was terminated at a series of time points by adding acetonitrile solution containing an internal standard compound. Centrifuge at 12,000 rpm for 20 min, take the supernatant solution, and place it in a vacuum centrifuge to dry. After acetonitrile was dissolved, the supernatant solution was centrifugated, and the remaining compounds were quantified by LC-MS to evaluate the metabolic stability of liver microsomes."}, "[6]": {"biological_target": "ERK2 (Homo sapiens, UniProt P28482)", "sequence (P28482 whole entry)": "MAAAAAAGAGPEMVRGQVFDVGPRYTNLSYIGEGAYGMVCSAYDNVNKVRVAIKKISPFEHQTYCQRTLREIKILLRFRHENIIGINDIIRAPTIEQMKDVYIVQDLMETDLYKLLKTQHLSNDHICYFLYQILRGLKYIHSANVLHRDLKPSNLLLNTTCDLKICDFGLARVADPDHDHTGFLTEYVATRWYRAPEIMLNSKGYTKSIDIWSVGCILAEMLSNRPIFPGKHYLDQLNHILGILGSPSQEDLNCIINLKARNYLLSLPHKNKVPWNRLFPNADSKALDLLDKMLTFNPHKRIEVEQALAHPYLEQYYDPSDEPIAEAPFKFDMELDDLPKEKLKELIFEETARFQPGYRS", "test": "Isothermal titration calorimetry (ITC) assay", "type": "binding", "conditions": "25 °C", "method": "(§4) The full-length human ERK1 or ERK2 with His-tag was cloned into a pET28a vector. hERK1/2 were expressed in Escherichia coli BL21(DE3), and then were purified using sequential Ni-NTA and Superdex 200 column steps. The SEC purified sample was then concentrated to 10 mg/ml and stored at −80 °C with buffer containing 20 mM HEPES pH 7.5, 150 mM NaCl. ERK5 (residues 48–395) containing His and GST tags was cloned into the pFastBac vector, and the recombinant plasmid was extracted. The recombinant plasmid was transformed into the DH10bac strain, and monoclonal was selected for culture. The recombinant Bacmid was then extracted according to the instructions of the Baculovirus Shuttle Vector Bacmid Mini Preparation Kit (Beyotime) and validated by PCR. 1 × 10^6/well Sf9 cells were counted for transfection and then amplified to obtain P3 ERK5 recombinant baculovirus. It was added to 2 × 10^6/mL Sf9 cells and incubated at 27 °C for 72 h on a shaker to express ERK5. Cells were lysed and supernatant was collected on a Ni-NTA for purification, and a 250 mM imidazole eluate was collected. […]\n(§5) Calorimetric experiments were carried on an Affinity ITC (Waters, Shanghai) with 1 mM SKLB-D18 and 0.1 mM ERK1/2/5. […] The data were analyzed with the NanoAnalyze software employing a single binding site model. […]"}, "[7]": {"biological_target": "ERK1 (Homo sapiens, UniProt P27361)", "sequence (P27361 whole entry)": "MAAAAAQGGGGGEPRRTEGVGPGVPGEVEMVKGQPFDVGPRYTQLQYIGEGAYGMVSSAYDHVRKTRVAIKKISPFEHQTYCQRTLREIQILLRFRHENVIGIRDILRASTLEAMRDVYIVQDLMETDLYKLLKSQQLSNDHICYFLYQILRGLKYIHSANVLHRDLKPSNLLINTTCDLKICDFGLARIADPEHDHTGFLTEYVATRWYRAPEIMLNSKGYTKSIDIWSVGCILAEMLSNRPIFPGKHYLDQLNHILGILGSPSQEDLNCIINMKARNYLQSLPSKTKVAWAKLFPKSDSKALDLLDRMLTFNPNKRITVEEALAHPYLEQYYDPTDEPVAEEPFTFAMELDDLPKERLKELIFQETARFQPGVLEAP", "test": "Isothermal titration calorimetry (ITC) assay", "type": "binding", "conditions": "25 °C", "method": "as §4, §5"}, "[8]": {"test": "Pharmacokinetic study", "type": "in vivo", "conditions": "rat, plasma, SD rats; for Vd: SD, 1 mg/kg", "method": "SKLB-D18 was formulated using a composition of 10% DMSO, 10% Solutol, and 80% (20% HP-β-CD). SKLB-D18 was administered via intravenous injection (1 mg/kg) and intragastric administration (10 mg/kg) on SD rats. At various time points post-administration (0.25 h, 0.5 h, 1 h, 2 h, 4 h, 6 h, 8 h, 24 h), blood samples (0.2 mL) were collected and centrifuged (6800 × g, 6 min, 2–8 °C) to separate plasma. Plasma samples were precipitated with methanol, vortexed, and centrifuged (18,000 × g, 4 °C, 7 min); the supernatant was analyzed using LC-MS/MS. Parameters such as AUC0-t, AUC0-∞, Cmax, Tmax, and T1/2 were calculated using Phoenix WinNonlin 7.0."}, "[9]": {"test": "Caco-2 bidirectional transport", "type": "in vitro ADME", "conditions": "human", "method": "(§6) Caco-2 cells were inoculated in a Transwell chamber with a pore size of 0.4 μm, and cultured for 15–20 days, the formation of the monolayer cell model was verified by the permeability determination of fluorescein sodium. Then a certain concentration of culture-medium containing candidate compounds was added to the upper and lower sides of different groups of cells, and the culture-medium at the corresponding position was absorbed after the specified time. After the internal standard compound was added, the content of candidate compounds was determined by LC-MS/MS to investigate the apparent permeability and effection rate, and to analyze the bidirectional transport characteristics of candidate compounds in the Caco-2 cell monolayer model."}, "[10]": {"system": "Caco-2 cell monolayer model", "test": "Caco-2 bidirectional transport", "type": "in vitro ADME", "conditions": "Caco-2, 120 min", "method": "as §6"}, "[11]": {"system": "MAPK2(h)", "test": "Kinase profiling", "type": "biochemical, human", "conditions": "1 μM", "method": "380 kinases inhibitory activities of SKLB-D18 were conducted by Eurofins Cerep SA. The result was illustrated by kinase tree (http://www.kinhub.org/kinmap/)."}}, "note": "Values joined by “and” are separate entries in the source; they are usually repeats but may differ in a detail not shown here. Identical values can stand only once. Like-named read-outs stand apart in the source and are kept apart here."}
{"smiles": "CN(C)Cc1cccc(Nc2ncc(Cl)c(-c3csc(C(=O)NN4CCOCC4)c3)n2)c1", "note": "[SKLB-D18, 4-(5-chloro-2-((3-((dimethylamino)methyl)phenyl)amino)pyrimidin-4-yl)-N-morpholinothiophene-2-carboxamide]", "values": [{"measurement": "IC50", "setting": "[1]", "result": "3210 ± 340", "unit": "nM"}, {"measurement": "IC50", "setting": "[2]", "result": "2310 ± 290", "unit": "nM"}, {"measurement": "IC50", "setting": "[3]", "result": 14800, "unit": "nM"}, {"measurement": "IC50", "setting": "[4]", "result": 19800, "unit": "nM"}, {"measurement": "Residual rate (%)", "setting": "[5]; SD rat liver microsomes", "result": 25.8, "unit": "%"}, {"measurement": "T1/2", "setting": "[5]; SD rat liver microsomes", "result": 0.5418, "unit": "h"}, {"measurement": "microsomal CLint", "setting": "[5]; SD rat liver microsomes", "result": 42.6, "unit": "µL/min/mg"}, {"measurement": "half-life", "setting": "[5]; SD, rat, liver microsomes", "result": 0.542, "unit": "h"}, {"measurement": "Residual rate (%)", "setting": "[5]; human liver microsomes", "result": 69.42, "unit": "%"}, {"measurement": "half-life", "setting": "[5]; human liver microsomes", "result": 1.53, "unit": "h"}, {"measurement": "microsomal CLint", "setting": "[5]; human liver microsomes", "result": 15.1, "unit": "µL/min/mg"}, {"measurement": "Kd", "setting": "[6]", "result": 210, "unit": "nM"}, {"measurement": "Kd", "setting": "[7]", "result": 127, "unit": "nM"}, {"measurement": "Vd", "setting": "[8]; iv, i.v. 1 mg/kg, read-out: Vss", "result": "17 ± 0.568", "unit": "L/kg"}, {"measurement": "Vd", "setting": "[8]; iv, i.v. 1 mg/kg, read-out: Vz", "result": "20.2 ± 1.38", "unit": "L/kg"}, {"measurement": "AUC(0-inf)", "setting": "[8]; iv, i.v. 1 mg/kg", "result": "143 ± 6.6", "unit": "ng·h/mL"}, {"measurement": "AUC(0-t)", "setting": "[8]; iv, i.v. 1 mg/kg", "result": "136 ± 5.73", "unit": "ng·h/mL"}, {"measurement": "Cmax", "setting": "[8]; iv, i.v. 1 mg/kg", "result": "58.7 ± 7.22", "unit": "ng/mL"}, {"measurement": "half-life", "setting": "[8]; iv, i.v. 1 mg/kg", "result": "2.01 ± 0.16", "unit": "h"}, {"measurement": "clearance", "setting": "[8]; iv, i.v. 1 mg/kg, read-out: CL (mL/(min·kg))", "result": "117 ± 5.45", "unit": "mL/min/kg"}, {"measurement": "bioavailability", "setting": "[8]; oral, p.o. 10 mg/kg vs i.v. 1 mg/kg", "result": 22.4, "unit": "%"}, {"measurement": "AUC(0-inf)", "setting": "[8]; po, p.o. 10 mg/kg", "result": 457, "unit": "ng·h/mL"}, {"measurement": "AUC(0-t)", "setting": "[8]; po, p.o. 10 mg/kg", "result": 304, "unit": "ng·h/mL"}, {"measurement": "Cmax", "setting": "[8]; po, p.o. 10 mg/kg", "result": 53.7, "unit": "ng/mL"}, {"measurement": "half-life", "setting": "[8]; po, p.o. 10 mg/kg", "result": 3.71, "unit": "h"}, {"measurement": "Papp A→B at 30 min", "setting": "[9]; Caco-2, 30 min, read-out: AP→BL Papp", "result": "0.106 ± 0.01", "unit": "×10⁻⁶ cm/s"}, {"measurement": "Papp B→A at 30 min", "setting": "[9]; Caco-2, 30 min, read-out: BL→AP Papp", "result": "0.011 ± 0.01", "unit": "×10⁻⁶ cm/s"}, {"measurement": "Papp A→B at 60 min", "setting": "[9]; Caco-2, 60 min, read-out: AP→BL Papp", "result": "0.318 ± 0.06", "unit": "×10⁻⁶ cm/s"}, {"measurement": "Papp B→A at 60 min", "setting": "[9]; Caco-2, 60 min, read-out: BL→AP Papp", "result": "0.117 ± 0.02", "unit": "×10⁻⁶ cm/s"}, {"measurement": "Papp A→B at 120 min", "setting": "[9]; Caco-2, 120 min, read-out: AP→BL Papp", "result": 2.23, "unit": "×10⁻⁶ cm/s"}, {"measurement": "Papp B→A at 120 min", "setting": "[9]; Caco-2, 120 min, read-out: BL→AP Papp", "result": 0.305, "unit": "×10⁻⁶ cm/s"}, {"measurement": "Efflux rate (%)", "setting": "[10]", "result": "13.7% and 13.7 ± 0.5%"}, {"measurement": "Inhibition%", "setting": "[11]", "result": 56, "unit": "%"}]}
